Values quoted from earlier work, collected in patent US20080081052A1, “Topical compositions containing solubilized allantoin and related methods” (priority 2006, published 2008).

Conditions: expressed in g/100 g water @ 25 degree C; no solubilization enhancer

solubility of allantoin in water: 0.45%
SMILES: NC(=O)NC1NC(=O)NC1=O (stereo not shown) [allantoin, (2,5-dioxo-4-imidazolidinyl) urea]
